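Grown in 96-well plates, cells were treated for 48 hours with each compound at five concentrations. Insufficient inhibition: endpoint recorded as highest concentration tested. GI50: concentration for 50% inhibition of growth.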 Active and inactive are the calls of the source. No stated cut-off is given here; in the data, active = GI50 up to about 1.1 µM and inactive = higher. Where a SMILES comes first, the peptide text is derived from it. The star is where a group is joined. Cbz = O=C(OCc1ccccc1)*
Experiments:
Test in all cases: NCI-60 cell line screen, 48 h
A498 = tested on: A498
ACHN = tested on: ACHN
CAKI-1 = tested on: CAKI-1
HCT-116 = tested on: HCT-116
HT-29 = tested on: HT-29
K562 = tested on: K562
KM12 = tested on: KM12
MCF7 = tested on: MCF7
Malme-3M = tested on: Malme-3M
OVCAR-3 = tested on: OVCAR-3
OVCAR-4 = tested on: OVCAR-4
OVCAR-8 = tested on: OVCAR-8
SF-295 = tested on: SF-295
SF-539 = tested on: SF-539
SK-MEL-28 = tested on: SK-MEL-28
SK-MEL-5 = tested on: SK-MEL-5
SK-OV-3 = tested on: SK-OV-3
SNB-75 = tested on: SNB-75
T47D = tested on: T47D
UACC-62 = tested on: UACC-62

Measured: GI50

CCOc1ccc2nc3nc(O)nc(C)c3c(NCCCN(CC)CC)c2c1
inactive: A498 > 100 µM | ACHN > 100 µM | CAKI-1 > 100 µM | HCT-116 > 100 µM | HT-29 > 100 µM | K562 > 100 µM | KM12 > 100 µM | MCF7 > 100 µM | Malme-3M > 100 µM | OVCAR-3 > 100 µM | OVCAR-4 > 100 µM | OVCAR-8 > 100 µM | SF-295 > 100 µM | SF-539 > 100 µM | SK-MEL-28 > 100 µM | SK-MEL-5 > 100 µM | SK-OV-3 > 100 µM | SNB-75 > 100 µM | T47D > 100 µM | UACC-62 > 100 µM

CCOC(=O)CCC(NC(=O)C(Cc1ccccc1)NC(=O)OCc1ccccc1)C(=O)OCC (stereo not drawn) (Cbz-Phe-Glu(OEt)-OEt; configuration not given here)
inactive: A498 21.2 µM | ACHN 17.4 µM | CAKI-1 16.7 µM | HCT-116 18 µM | HT-29 20.2 µM | K562 37.4 µM | KM12 17 µM | MCF7 19.2 µM | Malme-3M 17.4 µM | OVCAR-3 15.3 µM | OVCAR-4 17.7 µM | OVCAR-8 19.5 µM | SF-295 19.8 µM | SF-539 20.3 µM | SK-MEL-28 17.9 µM | SK-MEL-5 15.5 µM | SK-OV-3 16.6 µM | SNB-75 18.7 µM | T47D 16.2 µM | UACC-62 17.9 µM

Reference: ChEMBL document CHEMBL1201862, “PubChem BioAssay data set” (2004)
